Source: patent US12188040B2, “Method for enhancing gene expression using AAV vector” (priority 2018, dated 2025)
“And” between values parts separate entries of the source, which are not always exact repeats. Equal values may be shown once. Read-outs that look alike come from different tables or passages of the source.

Test system: HEK293 cells
Settings: for Effect of enhancement compared among the sugars: monosaccharides 100 or 200 mM; for GFP intensity: Exp 2, AAV3B 6×10^7 vg/well, iso-osmotic additives: sucrose 125.0, glucose 132.3, mannitol 132.3, NaCl 71.5 mM; for D/L ratio of expression intensity: 132 mM
Protocol: As the first procedure, 4 methods of the addition were carried out, including adding sucrose immediately (5 minutes or less) after the administration of the AAV vector, and the administration of the AAV vector immediately (5 minutes or less) after, 10 minutes after or 1 hour after adding sucrose to cells.
In the same manner as the above-described procedure, the GFP expression level was measured 3 days later.
In the same manner as the above-described procedures, the GFP expression level was measured 3 days later.
AAV3B-CMV-AcGFP was mixed in advance with sucrose at each of various concentrations, and the mixture was allowed to stand at room temperature for 1 hour followed by administration to cells. […] In order to prevent cell damage due to a buffer at the time of dilution of sucrose, medium replacement was carried out using a sucrose solution having the same concentration that was prepared by the medium 3 hours after the administration.

[1] = Exp 9, monosaccharide 100 mM, 3 days
[2] = Exp 9, monosaccharide 100 mM, AAV3B 1×10^8 vg/well premixed 1 h, 3 days
[3] = Exp 9, monosaccharide 200 mM, 3 days
[4] = Exp 9, monosaccharide 200 mM, AAV3B 1×10^8 vg/well premixed 1 h, 3 days
[5] = Exp 5, AAV3B 1×10^8 vg/well premixed 1 h, glucose 132 mM final, Day 1
[6] = Exp 5, AAV3B 1×10^8 vg/well premixed 1 h, glucose 132 mM final, Day 2
[7] = Exp 5, AAV3B 1×10^8 vg/well premixed 1 h, glucose 132 mM final, Day 3
[8] = Exp 8, disaccharide 100 mM in medium, AAV3B 1×10^8 vg/well, Day 3
[9] = Exp 8, disaccharide 100 mM, Day 3
[10] = Exp 8, disaccharide 125 mM in medium, AAV3B 1×10^8 vg/well, Day 3
[11] = Exp 8, disaccharide 125 mM, Day 3
[12] = Exp 8, disaccharide 150 mM in medium, AAV3B 1×10^8 vg/well, Day 3
[13] = Exp 8, disaccharide 150 mM, AAV3B 1×10^8 vg/well, Day 1
[14] = Exp 8, disaccharide 150 mM, AAV3B 1×10^8 vg/well, Day 2
[15] = Exp 8, disaccharide 150 mM, AAV3B 1×10^8 vg/well, Day 6
[16] = Exp 8, disaccharide 150 mM, Day 3

O=C(CO)[C@@H](O)[C@H](O)[C@H](O)CO [Fructose, fructose]
Relativeness (vs (−)) [1]: 2.7
Fluorescence Intensity [2]: 402.0
Relativeness (vs (−)) [3]: 16.2 times
Fluorescence Intensity [4]: 2378.5
Effect of enhancement compared among the sugars (Exp 9, 3 days): comparable to that of sucrose

[Cl-].[Na+] [NaCl, reference compound]
GFP intensity (3 days): 2.5

OC[C@@H](O)[C@@H](O)[C@H](O)[C@H](O)CO [Mannitol, mannitol, reference compound]
GFP intensity (3 days): 342.8

O=C[C@@H](O)[C@H](O)[C@@H](O)[C@@H](O)CO [L-Glucose, L-glucose, reference compound]
Fluorescence Intensity [5]: 104.7
Fluorescence Intensity [6]: 669.2
Fluorescence Intensity [7]: 1397.7
Relativeness (vs Glucose(−)) (Exp 5, glucose 132 mM final, Day 1): 11 times and 11.0 times

OC[C@H]1O[C@H](O[C@H]2O[C@H](CO)[C@@H](O)[C@H](O)[C@H]2O)[C@H](O)[C@@H](O)[C@@H]1O [Trehalose, trehalose]
Fluorescence Intensity [8]: 995.7
Relativeness (vs No Sugar) [9]: 1.6
Fluorescence Intensity [10]: 1249.0
Relativeness (vs No Sugar) [11]: 2.1
Fluorescence Intensity [12]: 1903.7
Fluorescence Intensity [13]: 230.7
Fluorescence Intensity [14]: 949.8
Fluorescence Intensity [15]: 6490.7
Relativeness (vs No Sugar) [16]: 3.1

O=C[C@H](O)[C@@H](O)[C@H](O)[C@H](O)CO [D-Glucose, D-glucose]
D/L ratio of expression intensity (Exp 5, Day 1): 1.5 times
D/L ratio of expression intensity (Exp 5, Day 2): 1.8
D/L ratio of expression intensity (Exp 5, Day 3): 2.1 times
Fluorescence Intensity [5]: 161.0
Fluorescence Intensity [6]: 1232.5
Fluorescence Intensity [7]: 2966.3

OC[C@H]1O[C@H](O[C@H]2[C@H](O)[C@@H](O)[C@H](O)O[C@@H]2CO)[C@H](O)[C@@H](O)[C@@H]1O [Maltose, maltose]
Fluorescence Intensity [8]: 1158.0
Relativeness (vs No Sugar) [9]: 1.9
Fluorescence Intensity [10]: 1833.5
Relativeness (vs No Sugar) [11]: 3.0
Fluorescence Intensity [12]: 3281.8
Fluorescence Intensity [13]: 532.7
Fluorescence Intensity [14]: 2009.0
Relativeness (vs No Sugar) [16]: 5.4

O=C[C@H](O)[C@@H](O)[C@@H](O)[C@H](O)CO [Galactose, galactose]
Relativeness (vs (−)) [1]: 1.3
Fluorescence Intensity [2]: 189.5
Relativeness (vs (−)) [3]: 4.0 times
Fluorescence Intensity [4]: 583.5
Effect of enhancement compared among the sugars (Exp 9, 3 days): lower than those of the other sugars

OC[C@H]1O[C@@H](O[C@H]2[C@H](O)[C@@H](O)C(O)O[C@@H]2CO)[C@H](O)[C@@H](O)[C@H]1O (some centres unmarked) [Lactose, lactose]
Fluorescence Intensity [8]: 1189.0
Relativeness (vs No Sugar) [9]: 2.0
Fluorescence Intensity [10]: 1880.3
Relativeness (vs No Sugar) [11]: 3.1
Fluorescence Intensity [12]: 3606.8
Fluorescence Intensity [13]: 503.2
Fluorescence Intensity [14]: 2097.0
Fluorescence Intensity [15]: 10798.2
